The values that follow come from patent US20250136558A1, “PYRAZINE COMPOUNDS AS IRREVERSIBLE INHIBITORS OF FLT3” (BIOMEA FUSION, INC., priority 2021, published 2025).

Common to all, as to format: cell-based
For assay [1], the system named is MV-4-11. The assay can be described thus: Proliferation inhibition (CellTiter-Glo) in MV-4-11 cells. To be noted: Homo sapiens, MV4-11, 96 h, MV-4-11 AML cells, homozygous FLT3-ITD, IC50 (4 days). In a few lines: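 MV-4-11 human AML cells (homozygous FLT3-ITD) grown in RPMI-1640 with 10% heat-inactivated FBS and 1% Pen-Strep were seeded at about 10,000 cells per 200 μL in 96 well plates. Two hours later, compounds were dispensed at eight concentrations in duplicate. Viability was measured by CellTiter-Glo luminescence, and IC50 values came from four-parameter logistic non-linear regression against untreated cells (0.2% DMSO).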

The subject of assay [2] is K-562. The assay can be described thus: Proliferation inhibition (CellTiter-Glo) in K-562 cells. To be noted: Homo sapiens, K562, 96 h, K-562 CML cells, no FLT3 mutations, IC50 (4 days). In a few lines:
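The CML line […] (ATCC: CRL-3343) was cultured in RPMI-1640 with 10% heat-inactivated FBS and 1% Pen-Strep at 37° C. Cells were seeded at about 10,000 per 200 μL in 96-well plates, and test compound was dispensed 2 hours later at eight concentrations in duplicate. Viability was measured as ATP luminescence with CellTiter-Glo. Untreated cells (0.2% DMSO) defined 100% proliferation, and IC50 values came from four-parameter logistic fits.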

The subject of assay [3] is MOLM-13. The assay can be described thus: Proliferation inhibition (CellTiter-Glo) in MOLM-13 cells. To be noted: Homo sapiens, 96 h, MOLM-13 AML cells, heterozygous FLT3-ITD, IC50 (4 days). In a few lines:
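MOLM-13 human AML cells, heterozygous for FLT3-ITD, were grown in RPMI-1640 with 10% heat-inactivated FBS and 1% Pen-Strep. About 10,000 cells in 200 μL were seeded per well of 96-well plates. After 2 hours, compounds from DMSO stocks were dispensed at eight concentrations in duplicate, with 0.2% DMSO as the untreated control. Viability was read as CellTiter-Glo ATP luminescence, and IC50 was obtained from a four-parameter logistic fit.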

Bounds are passed on as bounds.

With `CCc1nc(C(N)=O)c(Nc2cc(C#CCNC(=O)[C@H](C)N(C)C(=O)/C=C/CN(C)C)cc(OC)c2)nc1NC1CCOCC1` [Compound 103, 3-[3-[3-[[(2S)-2-[[(E)-4-(dimethylamino)but-2-enoyl]-methyl-amino]propanoyl]amino]prop-1-ynyl]-5-methoxy-anilino]-6-ethyl-5-(tetrahydropyran-4-ylamino)pyrazine-2-carboxamide], the IC50 was less than 1 nM in assay [1], more than 500 nM in assay [2] and 1 to 10 nM in assay [3].
As to `CC#CC(=O)N(C)[C@@H](C)C(=O)NCCOc1cccc(Nc2nc(NC3CCOCC3)c(CC)nc2C(N)=O)c1` [Compound 104, 3-[3-[2-[[(2S)-2-[but-2-ynoyl(methyl)amino]propanoyl]amino]ethoxy]anilino]-6-ethyl-5-(tetrahydropyran-4-ylamino)pyrazine-2-carboxamide], the values for the IC50 in assay [1], in assay [2] and in assay [3] were 1 to 10 nM, more than 500 nM and 1 to 10 nM, respectively.
Turning to `C=CC(=O)N1CC(CC(=O)Nc2cccc(Nc3nc(NC4CCOCC4)c(CC)nc3C(N)=O)c2)C1` [Compound 105, 6-ethyl-3-[3-[[2-(1-prop-2-enoylazetidin-3-yl)acetyl]amino]anilino]-5-(tetrahydropyran-4-ylamino)pyrazine-2-carboxamide], the IC50 in assay [1] is 1 to 10 nM; in assay [2], more than 500 nM; in assay [3] it was 10 to 100 nM.
`C=CC(=O)NCCN1CCc2ccc(Nc3nc(NC4CCOCC4)c(CC)nc3C(N)=O)cc2C1=O` [Compound 106]: the IC50 in assay [1] was 10 to 100 nM; in assay [2], more than 500 nM; in assay [3], 10 to 100 nM.
Turning to `C=CC(=O)N(C)[C@@H](C)C(=O)NCC#Cc1cc(Nc2nc(NC3CCOCC3)c(CC)nc2C(N)=O)cc(OC)c1` [Compound 107, 6-ethyl-3-[3-methoxy-5-[3-[[(2S)-2-[methyl(prop-2-enoyl)amino]propanoyl]amino]prop-1-ynyl]anilino]-5-(tetrahydropyran-4-ylamino)pyrazine-2-carboxamide], the IC50 was 1 to 10 nM in assay [1], more than 500 nM in assay [2] and 1 to 10 nM in assay [3].
For `CC#CC(=O)N(C)[C@@H](C)C(=O)NCC#Cc1cc(Nc2nc(NC3CCOCC3)c(CC)nc2C(N)=O)cc(OC)c1` [Compound 108, 3-[3-[3-[[(2S)-2-[but-2-ynoyl(methyl)amino]propanoyl]amino]prop-1-ynyl]-5-methoxy-anilino]-6-ethyl-5-(tetrahydropyran-4-ylamino)pyrazine-2-carboxamide], the IC50 is 1 to 10 nM in assay [1], more than 500 nM in assay [2] and 1 to 10 nM in assay [3].
With `C=CC(=O)N(C)[C@@H](C)C(=O)NCCc1cc(Nc2nc(NC3CCOCC3)c(CC)nc2C(N)=O)cc(OC)c1` [Compound 109, 6-ethyl-3-[3-methoxy-5-[2-[[(2S)-2-[methyl(prop-2-enoyl)amino]propanoyl]amino]ethyl]anilino]-5-(tetrahydropyran-4-ylamino)pyrazine-2-carboxamide], the IC50 in assay [1] is 1 to 10 nM; in assay [2], more than 500 nM; in assay [3], 1 to 10 nM.
For `CCc1nc(C(N)=O)c(Nc2cc(CCNC(=O)[C@H](C)N(C)C(=O)/C=C/CN(C)C)cc(OC)c2)nc1NC1CCOCC1` [Compound 110, 3-[3-[2-[[(2S)-2-[[(E)-4-(dimethylamino)but-2-enoyl]-methyl-amino]propanoyl]amino]ethyl]-5-methoxy-anilino]-6-ethyl-5-(tetrahydropyran-4-ylamino)pyrazine-2-carboxamide], the IC50 in assay [1] was less than 1 nM; in assay [2], more than 500 nM; in assay [3], 1 to 10 nM.
For `CC#CC(=O)N(C)[C@@H](C)C(=O)NCCc1cc(Nc2nc(NC3CCOCC3)c(CC)nc2C(N)=O)cc(OC)c1` [Compound 111, 3-[3-[2-[[(2S)-2-[but-2-ynoyl(methyl)amino]propanoyl]amino]ethyl]-5-methoxy-anilino]-6-ethyl-5-(tetrahydropyran-4-ylamino)pyrazine-2-carboxamide] the same measures were 1 to 10 nM, more than 500 nM and 10 to 100 nM.
Turning to `C=CC(=O)N1CCC(C(=O)Nc2cccc(Nc3nc(NC4CCOCC4)c(CC)nc3C(N)=O)c2)C1` (stereo not drawn) [Compound 112, 6-ethyl-3-[3-[(1-prop-2-enoylpyrrolidine-3-carbonyl)amino]anilino]-5-(tetrahydropyran-4-ylamino)pyrazine-2-carboxamide], the IC50 in assay [1] is 100 to 500 nM; in assay [2], more than 500 nM; in assay [3], 100 to 500 nM.
Regarding `C=CC(=O)N(C)[C@@H](C)C(=O)NCC#Cc1cc(Nc2nc(NC3CCOCC3)c(CC)nc2C(N)=O)ccc1OC` [Compound 113, 6-ethyl-3-[4-methoxy-3-[3-[[(2S)-2-[methyl(prop-2-enoyl)amino]propanoyl]amino]prop-1-ynyl]anilino]-5-(tetrahydropyran-4-ylamino)pyrazine-2-carboxamide], the results for the IC50 in assay [1], in assay [2] and in assay [3] were less than 1 nM, more than 500 nM and 1 to 10 nM, respectively.
Consider `CC#CC(=O)N(C)[C@@H](C)C(=O)NCCCOc1cccc(Nc2nc(NC3CCOCC3)c(CC)nc2C(N)=O)c1` [Compound 114, 3-[3-[3-[[(2S)-2-[but-2-ynoyl(methyl)amino]propanoyl]amino]propoxy]anilino]-6-ethyl-5-(tetrahydropyran-4-ylamino)pyrazine-2-carboxamide], for which the IC50 was 1 to 10 nM in assay [1], more than 500 nM in assay [2] and 10 to 100 nM in assay [3].
In the case of `CCc1nc(C(N)=O)c(Nc2cccc(OC(C)CCNC(=O)[C@H](C)N(C)C(=O)/C=C/CN(C)C)c2)nc1NC1CCOCC1` (stereo partly drawn) [Compound 115, 3-[3-[3-[[(2S)-2-[[(E)-4-(dimethylamino)but-2-enoyl]-methyl-amino]propanoyl]amino]-1-methyl-propoxy]anilino]-6-ethyl-5-(tetrahydropyran-4-ylamino)pyrazine-2-carboxamide], the IC50 in assay [1] is less than 1 nM; in assay [2] it was more than 500 nM; in assay [3], 1 to 10 nM.
On to `CCc1nc(C(N)=O)c(Nc2cccc(OC(C)CNC(=O)[C@H](C)N(C)C(=O)/C=C/CN(C)C)c2)nc1NC1CCOCC1` (stereo partly drawn) [Compound 115A, 3-[3-[2-[[(2S)-2-[[(E)-4-(dimethylamino)but-2-enoyl]-methyl-amino]propanoyl]amino]-1-methyl-ethoxy]anilino]-6-ethyl-5-(tetrahydropyran-4-ylamino)pyrazine-2-carboxamide], for which the IC50 was less than 1 nM in assay [1], more than 500 nM in assay [2] and 1 to 10 nM in assay [3].
For `CCc1nc(C(N)=O)c(Nc2cccc(OCCCNC(=O)[C@H](C)N(C)C(=O)/C=C/CN(C)C)c2)nc1N(C)C1CCOCC1` [Compound 116, (S,E)-3-((3-(3-(2-(4-(dimethylamino)-N-methylbut-2-enamido)propanamido)propoxy)phenyl)amino)-6-ethyl-5-(methyl(tetrahydro-2H-pyran-4-yl)amino)pyrazine-2-carboxamide], in that order: less than 1 nM, more than 500 nM and less than 1 nM.
For `CCc1nc(C(N)=O)c(Nc2cccc(OCCCNC(=O)[C@H](C)N(C)C(=O)/C=C/CN(C)C)c2)nc1N(C)C` [Compound 118, (S,E)-5-(dimethylamino)-3-((3-(3-(2-(4-(dimethylamino)-N-methylbut-2-enamido)propanamido)propoxy)phenyl)amino)-6-ethylpyrazine-2-carboxamide], the IC50 in assay [1] is less than 1 nM; in assay [2], more than 500 nM; in assay [3] it was 1 to 10 nM.
Turning to `CCc1nc(C(N)=O)c(Nc2cccc(OCCCNC(=O)[C@H](C)N(C)C(=O)/C=C/CN(C)C)c2)nc1NC` [Compound 119, (S,E)-3-((3-(3-(2-(4-(dimethylamino)-N-methylbut-2-enamido)propanamido)propoxy)phenyl)amino)-6-ethyl-5 (methylamino)pyrazine-2-carboxamide], the IC50 in assay [1] was 1 to 10 nM; in assay [2] it was more than 500 nM; in assay [3], 1 to 10 nM.
On to `CCc1nc(C(N)=O)c(Nc2cccc(OCCCNC(=O)[C@H](C)N(C)C(=O)/C=C/CN(C)C)c2)nc1OC` [Compound 120, (S,E)-3-((3-(3-(2-(4-(dimethylamino)-N-methylbut-2-enamido)propanamido)propoxy)phenyl)amino)-6-ethyl-5-methoxypyrazine-2-carboxamide], for which the results for the IC50 in assay [1], in assay [2] and in assay [3] were 1 to 10 nM, more than 500 nM and 1 to 10 nM, respectively.
For the molecule `CCc1cnc(Nc2cccc(OCCCNC(=O)[C@H](C)N(C)C(=O)/C=C/CN(C)C)c2)c(C(N)=O)n1` [Compound 121, (S,E)-3-((3-(3-(2-(4-(dimethylamino)-N-methylbut-2-enamido)propanamido)propoxy)phenyl)amino)-6-ethylpyrazine-2-carboxamide], the IC50 in assay [1] is 10 to 100 nM; in assay [2] it was more than 500 nM; in assay [3], 100 to 500 nM.
